Measurements published in PMC7763008, “Antimicrobial, Anticancer and Multidrug-Resistant Reversing Activity of Novel Oxygen-, Sulfur- and Selenoflavones and Bioisosteric Analogues” (Pharmaceuticals, 2020).
Like-named read-outs stand apart in the source and are kept apart here.

Assays:
[1] = tested on: Colo 320/MDR-LRP human colonic adenocarcinoma cell line (multidrug resistant); assay: MTT antiproliferative activity assay, Colo 320; type: cell-based; conditions: 5 × 10^3 cells/well, read-out: Antiproliferative activity, B—Colo 320 IC50
Excerpt: (§1) Three cell lines have been used in this work: (i), the doxorubicin-sensitive Colo 205 (ATCC-CCL-222) human colonic adenocarcinoma cell line; (ii) the multidrug resistant Colo 320/MDR-LRP expressing P-gp (MDR1)-LRP (ATCC-CCL-220.1) human colonic adenocarcinoma cell line; and the MRC-5 human embryonal lung fibroblast cell line (ATCC CCL-171). The three cell lines were purchased from LGC Promochem, Teddington, UK.
(§2) Colo 205 (ATCC-CCL-222) and Colo 320/MDR-LRP expressing P-gp (MDR1)-LRP (ATCC-CCL-220.1 human colon adenocarcinoma cell lines. As previously described, the cells were cultured in RPMI 1640 medium supplemented with 10% heat-inactivated fetal bovine serum, 2 mM L-glutamine, 1 mM Na-pyruvate, and 100 mM Hepes. The cell lines were incubated at 37 °C, in a 5% CO2, 95% air atmosphere. The semi-adherent human colon cancer cells were detached with Trypsin-Versene (EDTA) solution for 5 min at 37 °C [20].
(§3) The influence of synthetic flavonoid derivatives (compounds 1–6) on the doxorubicin-sensitive Colo 205, multidrug resistant Colo 320/MDR-LRP adenocarcinoma and MRC-5 cell lines was evaluated employing the MTT metabolic activity assay, using a procedure described in Supplementary Materials and in previous works, and applying the appropriate formulas to calculate the cell growth inhibition and the selectivity index (SI), as well as the criterion to determine whether a compound is strongly or moderately selective.
(§4) Briefly, the serial dilutions in culture medium required for the MTT metabolic assay (ranging from 100 to 0.195 µM) were freshly prepared before the assay. The stock solutions (10 mM) of the tested compounds were prepared in pure DMSO and the final concentration of DMSO was adjusted to less than 1% threshold in the biological experiments. The concentration-dependent growth inhibition was evaluated in 96-well flat-bottomed microtiter plates. Doxorubicin (DOXO) was employed as a positive control whilst culture medium containing cells was used as a negative control.
(§5) In the case of the colonic adenocarcinoma cells, two-fold serial dilutions of the flavone compounds were prepared in 100 μL of RPMI 1640, horizontally. Furthermore, the semi-adherent colonic adenocarcinoma cells were treated with Trypsin-Versene (EDTA) solution. Then, cells were adjusted to a density of 5 × 10^3/well for antiproliferative assay and 1 × 10^4/well for the estimation of cytotoxic activity in 100 µL of medium. The cells were added to each well except to the medium control wells. The culture plates were subsequently incubated at 37 °C for 24 h and 72 h, respectively; 20 μL of MTT solution (thiazolyl blue tetrazolium bromide, Sigma) were added to each well from MTT stock solution (5 mg /mL) after incubation. After 4 h of incubation at 37 °C, 100 μL of sodium dodecyl sulfate (SDS) solution (10% in 0.01 M HCl) was added to each well and all plates were incubated at 37 °C overnight. Finally, cell growth was determined by measuring the optical density (OD) at 540 nm (ref. 630 nm) with Multiscan EX ELISA reader (Thermo Labsystems, Cheshire, WA, USA).
(§6) The inhibition of the cell growth was determined according to the formula mentioned elsewhere. Finally, the cell viability and IC50 values for every tested compound and doxorubicin were calculated using GraphPad Prism, version 5.03.

[2] = MTT cytotoxic activity assay, MRC-5; type: cell-based; conditions: human
Excerpt: as §1
MRC-5 human embryonal lung fibroblast cell line (ATCC CCL-171). As previously described, the cells were cultured in Eagle’s Minimal Essential Medium (EMEM, containing 4.5 g/L of glucose) supplemented with a non-essential amino acid mixture, a selection of vitamins and 10% heat-inactivated fetal bovine serum. The cell lines were incubated at 37 °C, in a 5% CO2, 95% air atmosphere.
as §3, §4
Prior to the experiments, the adherent human embryonal lung fibroblasts (MRC-5) were cultured in flat-bottomed microtiter 96-well plates in an EMEM media supplemented with 10% heat-inactivated fetal bovine serum. Cells were seeded at a density of 10.000 cells per well for 24 h before the beginning of the experiment. The cells were cultured at 37 °C in the humidified cell incubator with the 5% of CO2 and 95% air environment. The medium was subsequently removed from the plates containing the cells, and the dilutions of tested compounds, previously made in a separate micro-titration plate, were added to the cells (at final volume equal to 200 μL).
as §6

[3] = tested on: Colo 205 human colonic adenocarcinoma cell line (doxorubicin-sensitive); assay: MTT cytotoxic activity assay, Colo 205; type: cell-based; conditions: COLO 205, read-out: Cytotoxic activity, A—Colo 205 IC50
Excerpt: as §1, §2, §3, §4, §5, §6

[4] = tested on: Colo 320/MDR-LRP human colonic adenocarcinoma cell line (multidrug resistant); assay: MTT cytotoxic activity assay, Colo 320; type: cell-based
Excerpt: as §1, §2, §3, §4, §5, §6

[5] = molecular target: P-gp (ABCB1) efflux pump in MDR Colo 320 colon adenocarcinoma cells (Homo sapiens, UniProt P08183); assay: Rhodamine 123 accumulation assay (MDR efflux pump inhibition, flow cytometry); conditions: for FAR (fluorescence activity ratio): MDR Colo 320 vs sensitive Colo 205; for FAR Quotient (%): FAR of compound / FAR of verapamil (20 μM) x 100; for Increase in efflux pump inhibitory activity of naphthyl vs corresponding phenyl derivative: naphthyl-substituted vs phenyl-substituted chalcogen flavone, 20 µM data
Procedure: The P-glycoprotein (P-gp) inhibitory properties of the tested flavone derivatives were evaluated in a rhodamine R123 accumulation assay in two different concentrations.
This is a fluorescence-based detection assay which uses verapamil as a reference inhibitor of P-gp efflux pump. […] Compounds (1 μL and 10 μL from a stock solution of 1 mM) were added to the medium to achieve solutions with final concentrations of 2 μM and 20 μM respectively, followed by incubation of the sample for 10 min at room temperature. […] The fluorescence intensity of the cell population was measured with a Partec CyFlow flow cytometer (Partec, Munster, Germany). Verapamil (20 μM) was employed as a positive control. […] The fluorescence activity ratio (FAR) was calculated employing the following equation [20, 26]:FAR = (MDRtreated/MDRcontrol)/(sensitivetreated/ sensitivecontrol)(1)
FAR Quotient % was calculated as follows:Quotient = (FARcompound/FARverapamil) × 100(2)

[6] = tested on: Escherichia coli; assay: Antibacterial growth assay, E. coli; type: cell-based; conditions: highest concentration (200 µM; not restated for E. coli)
Procedure: (§7) The antimicrobial activities of the compounds were determined according to the protocol described in the literature, employing a Universal Microplate Reader, EL800, Biotech Instruments, Inc. Highland Park, Winooski, VT, USA [23, 24, 25].
(§8) In short words, compounds were dissolved in DMSO and later diluted in the adequate growth media to be evaluated at the final concentrations of 50, 100, 150, and 200 µM. Nutrient Luria Bertani (LB) broth, bacterial basic media, Sabouraud Dextrose (SD), and Yeast Peptone Dextrose (YPD) were exploited as media for Escherichia coli, Staphylococcus carnosus, Candida albicans, and Saccharomyces cerevisiae, respectively. In all cases, the final concentration of DMSO was 1% or less. A mixture of penicillin, streptomycin, and amphotericin B (4 U, 0.4 µg/mL and 10 µg/mL, respectively) was employed as positive control for S. carnosus and E. coli, while ketoconazole was utilized as the positive control for C. albicans and S. cerevisiae. The untreated culture in medium was employed as the negative control for each organism; 1% DMSO stock solution was used as a solvent control. All experiments were performed in triplicates and on three independent occasions (n = 9).

[7] = tested on: Staphylococcus carnosus; assay: Antibacterial growth assay, S. carnosus; type: cell-based; conditions: highest concentration of 200 µM
Procedure: as §7, §8

[8] = tested on: Colo 205 human colonic adenocarcinoma cell line (doxorubicin-sensitive); assay: MTT antiproliferative activity assay, Colo 205; type: cell-based; conditions: 5 × 10^3 cells/well
Excerpt: as §1, §2, §3, §4, §5, §6

[9] = tested on: S. feltiae; assay: Nematicidal activity assay; type: in vivo; conditions: Steinernema feltiae; for viability at 200 µM: read-out: Viability of the nematodes; for IC50: in Figure 2
Procedure: The soil nematodes S. feltiae were freshly purchased for experiment from Sautter and Stepper GmbH (Ammerbuch, Germany) and stored at 4 °C in the dark. The assay was performed according to the protocols described in the literature. Results were expressed as mean ± standard deviation (SD) and their statistical significance values were determined by one-way ANOVA followed by Tukey’s multiple comparison test. To consider data statistically significant, the p value should be ≤ 0.05.

[10] = COLO 320, read-out: Cytotoxic activity, B—Colo 320 IC50
[11] = MTT, 1 × 10^4 cells/well, Colo 320, read-out: Cytotoxic activity, B—Colo 320 IC50
[12] = MTT, MRC-5 normal lung fibroblasts, read-out: Cytotoxic activity, C—MRC-5 IC50

Sequence of P-gp (ABCB1) efflux pump in MDR Colo 320 colon adenocarcinoma cells (P08183 whole entry): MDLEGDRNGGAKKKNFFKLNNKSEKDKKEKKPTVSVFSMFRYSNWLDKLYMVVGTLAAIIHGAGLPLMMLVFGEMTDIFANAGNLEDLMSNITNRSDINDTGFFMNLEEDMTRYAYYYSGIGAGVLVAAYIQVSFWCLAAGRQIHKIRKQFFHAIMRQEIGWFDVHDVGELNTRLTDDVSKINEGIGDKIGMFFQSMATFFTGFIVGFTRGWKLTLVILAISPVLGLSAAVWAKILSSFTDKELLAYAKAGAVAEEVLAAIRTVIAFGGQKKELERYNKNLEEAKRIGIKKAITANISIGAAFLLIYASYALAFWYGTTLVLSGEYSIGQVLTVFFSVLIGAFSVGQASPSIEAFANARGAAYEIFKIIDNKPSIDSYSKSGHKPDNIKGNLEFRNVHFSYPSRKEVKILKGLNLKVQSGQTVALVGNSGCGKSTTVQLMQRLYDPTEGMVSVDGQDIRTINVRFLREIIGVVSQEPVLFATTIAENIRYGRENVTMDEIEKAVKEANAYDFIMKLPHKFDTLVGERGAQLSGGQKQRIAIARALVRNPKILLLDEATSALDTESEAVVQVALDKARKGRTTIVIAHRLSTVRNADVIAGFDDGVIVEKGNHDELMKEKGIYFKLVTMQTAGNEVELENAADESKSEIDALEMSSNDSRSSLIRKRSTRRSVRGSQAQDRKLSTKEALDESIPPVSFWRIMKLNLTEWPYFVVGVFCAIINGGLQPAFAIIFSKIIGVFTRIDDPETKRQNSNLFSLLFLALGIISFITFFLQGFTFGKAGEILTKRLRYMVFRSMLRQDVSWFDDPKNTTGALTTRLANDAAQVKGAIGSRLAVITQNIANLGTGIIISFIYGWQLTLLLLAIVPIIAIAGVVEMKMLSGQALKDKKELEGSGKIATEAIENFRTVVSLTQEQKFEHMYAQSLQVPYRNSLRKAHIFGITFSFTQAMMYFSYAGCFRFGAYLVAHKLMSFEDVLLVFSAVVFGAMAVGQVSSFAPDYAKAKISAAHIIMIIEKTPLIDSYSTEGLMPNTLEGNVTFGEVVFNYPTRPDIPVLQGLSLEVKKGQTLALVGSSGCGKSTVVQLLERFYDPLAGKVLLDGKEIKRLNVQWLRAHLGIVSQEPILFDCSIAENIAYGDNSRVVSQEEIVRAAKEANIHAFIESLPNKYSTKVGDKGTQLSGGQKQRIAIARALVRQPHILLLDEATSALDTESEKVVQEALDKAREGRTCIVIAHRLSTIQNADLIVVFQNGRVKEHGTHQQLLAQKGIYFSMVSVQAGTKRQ

SMILES | IC50 [1] | IC50 [2] | IC50 [3] | IC50 [4, 10] | FAR (fluorescence activity ratio) ([5]; 2 μM compound) | FAR Quotient (%) ([5]; 2 μM compound) | FAR (fluorescence activity ratio) ([5]; 20 μM) | FAR Quotient (%) ([5]; 20 μM) | Increase in efflux pump inhibitory activity of naphthyl vs corresponding phenyl derivative [5] | inhibition at 200 µM [6] | inhibition at 200 µM [7] | IC50 [8] | IC50 ([2]; MRC-5 embryonal lung fibroblast cells, MTT, MRC-5 normal lung fibroblasts, read-out: Cytotoxic activity, C—MRC-5 IC50) | IC50 [4, 11] | viability at 200 µM ([9]; highest concentration (200 µM)) | IC50 [9] | viability at 200 µM [9] | IC50 [2, 12] | P-gp inhibition relative to the reference verapamil ([5]; 20 µM)
COc1ccc2cc(-c3oc4ccccc4c(=O)c3CC(S(=O)(=O)C(F)(F)F)S(=O)(=O)C(F)(F)F)ccc2c1 [Compound 4] | > 100 µM | > 100 µM | > 100 µM | > 100 µM | 1.48 | 45.42% | 4.81 | 147.50% | 3.14 fold | 45% | 37% | > 100 µM | – | – | – | – | – | – | –
COc1cccc2c1C(=O)c1c(O)c3c(c(O)c1C2=O)C[C@@](O)(C(=O)CO)C[C@@H]3O[C@H]1C[C@H](N)[C@H](O)[C@H](C)O1 [DOXO, Doxorubicin, reference compound] | 0.14 µM | – | 1.56 µM | – | – | – | – | – | – | – | – | 0.24 µM | > 10 µM | 6.45 µM | – | – | – | – | –
COc1ccc(-c2sc3ccccc3c(=O)c2CC(S(=O)(=O)C(F)(F)F)S(=O)(=O)C(F)(F)F)cc1 [Compound 2] | > 100 µM | > 100 µM | > 100 µM | > 100 µM | 0.97 | 29.67% | 1.89 | 57.83% | – | 42% | 47% | > 100 µM | – | – | 24% | 54.98 ± 0.143 µM | – | – | –
COc1ccc(-c2[se]c3ccccc3c(=O)c2CC(S(=O)(=O)C(F)(F)F)S(=O)(=O)C(F)(F)F)cc1 [Compound 3] | > 100 µM | – | – | – | 1.06 | 32.58% | 1.45 | 44.33% | – | 49% | 57% | > 100 µM | – | > 100 µM | – | 41.94 ± 0.286 µM | 29% | > 100 µM | –
COc1ccc2cc(-c3sc4ccccc4c(=O)c3CC(S(=O)(=O)C(F)(F)F)S(=O)(=O)C(F)(F)F)ccc2c1 [Compound 5] | > 100 µM | > 100 µM | > 100 µM | > 100 µM | 1.95 | 59.92% | 8.61 | 264.17% | 4.57 fold | 39% | 47% | > 100 µM | – | – | – | – | – | – | 2.64 fold
COc1ccc(-c2oc3ccccc3c(=O)c2CC(S(=O)(=O)C(F)(F)F)S(=O)(=O)C(F)(F)F)cc1 [Compound 1] | > 100 µM | > 100 µM | > 100 µM | > 100 µM | 1.14 | 34.92% | 1.53 | 46.92% | – | 30% | – | > 100 µM | – | – | 30% | 23 ± 0.297 µM | – | – | –
COc1ccc2cc(-c3[se]c4ccccc4c(=O)c3CC(S(=O)(=O)C(F)(F)F)S(=O)(=O)C(F)(F)F)ccc2c1 [Compound 6, bis(triflyl) selenoflavone] | > 100 µM | – | – | – | 1.14 | 34.92% | 4.67 | 143.33% | 3.23 fold | – | – | > 100 µM | – | > 100 µM | – | 80.62 ± 0.142 µM | 26% | > 100 µM | –
